Assay: wn = mass fraction of the nth substance listed
Details: Liquid; for mass density: Vibrating tube method

NCCO [2-aminoethan-1-ol] + O
mass density [kg/m3]
Details	w1 = 0.1001	w1 = 0.2	w1 = 0.3005	w1 = 0.4
333.15 K, 30000 kPa	–	–	1003.5	1006.7
333.15 K, 40000 kPa	1002.7	1004.5	1007.3	1010.4
333.15 K, 50000 kPa	1006.5	1008	1010.8	1013.8
333.15 K, 60000 kPa	1010.4	1011.7	1014.4	1017.3
333.15 K, 70000 kPa	1014.1	1015.2	1017.8	1020.7
333.15 K, 80000 kPa	1017.7	1018.7	1021.1	1024
333.15 K, 90000 kPa	1021.3	1022.1	1024.4	1027.1
333.15 K, 100000 kPa	1024.8	1025.5	1027.7	1030.3
333.15 K, 110000 kPa	1028.1	1028.8	1031	1033.5
333.15 K, 120000 kPa	1031.7	1032.2	1034.2	1036.7
353.15 K, 100 kPa	974.7	976.7	979.2	981.9
353.15 K, 500 kPa	974.7	976.7	979.4	982
353.15 K, 1000 kPa	975	976.9	979.6	982.2
353.15 K, 2000 kPa	975.4	977.4	980	982.6
353.15 K, 5000 kPa	976.7	978.6	981.2	983.9
353.15 K, 10000 kPa	978.9	980.8	983.3	986
353.15 K, 15000 kPa	981.1	982.9	985.4	988
353.15 K, 20000 kPa	983.2	984.9	987.4	990
353.15 K, 30000 kPa	987.4	988.9	991.4	993.9
353.15 K, 40000 kPa	991.4	992.9	995.2	997.7
353.15 K, 50000 kPa	995.4	996.7	999	1001.4
353.15 K, 60000 kPa	999.4	1000.6	1002.7	1005.1
353.15 K, 70000 kPa	1003.1	1004.2	1006.2	1008.6
353.15 K, 80000 kPa	1006.9	1007.7	1009.8	1012.1
353.15 K, 90000 kPa	1010.5	1011.3	1013.1	1015.3
353.15 K, 100000 kPa	1014.1	1014.7	1016.6	1018.7
353.15 K, 110000 kPa	1017.7	1018.2	1020	1022.1
353.15 K, 120000 kPa	1021.2	1021.6	1023.3	1025.2
373.15 K, 100 kPa	960.8	962.5	964.5	966.6
373.15 K, 500 kPa	961	962.7	964.8	966.9
373.15 K, 1000 kPa	961.3	962.9	965	967.1
373.15 K, 2000 kPa	961.8	963.4	965.5	967.6
373.15 K, 5000 kPa	963.1	964.7	966.8	968.9
373.15 K, 10000 kPa	965.5	966.9	969	971.1
373.15 K, 15000 kPa	967.7	969.1	971.2	973.3
373.15 K, 20000 kPa	969.9	971.3	973.4	975.4
373.15 K, 30000 kPa	974.4	975.6	977.6	979.7
373.15 K, 40000 kPa	978.7	979.8	981.7	983.8
373.15 K, 50000 kPa	982.8	983.7	985.6	987.6
373.15 K, 60000 kPa	986.8	987.7	989.5	991.6
373.15 K, 70000 kPa	990.8	991.5	993.3	995.2
373.15 K, 80000 kPa	994.8	995.4	997.1	999.1
373.15 K, 90000 kPa	998.5	999	1000.8	1002.5
373.15 K, 100000 kPa	1002.2	1002.5	1004.2	1006
373.15 K, 110000 kPa	1005.9	1006.1	1007.7	1009.5
373.15 K, 120000 kPa	1009.6	1009.6	1011.1	1012.9
393.15 K, 100 kPa	945.2	946.5	948.4	950
393.15 K, 500 kPa	945.6	946.9	948.8	950.4
393.15 K, 1000 kPa	945.8	947	948.9	950.6
393.15 K, 2000 kPa	946.3	947.5	949.4	951.1
393.15 K, 5000 kPa	947.8	949	950.9	952.5
393.15 K, 10000 kPa	950.3	951.5	953.3	955
393.15 K, 15000 kPa	952.7	953.8	955.7	957.3
393.15 K, 20000 kPa	955.2	956.2	958.1	959.7
393.15 K, 30000 kPa	959.8	960.7	962.6	964.3
393.15 K, 40000 kPa	964.4	965.2	967	968.7
393.15 K, 50000 kPa	968.7	969.4	971.1	972.8
393.15 K, 60000 kPa	973	973.6	975.3	977
393.15 K, 70000 kPa	977.3	977.8	979.5	981.1
393.15 K, 80000 kPa	981.3	981.6	983.2	985
393.15 K, 90000 kPa	985.2	985.6	987.1	988.8
393.15 K, 100000 kPa	989.1	989.4	990.9	992.5
393.15 K, 110000 kPa	993	993	994.6	996.2
393.15 K, 120000 kPa	996.7	996.7	998.2	999.7

viscosity [mPa·s]
Details	333.15 K	353.15 K
93 kPa, Concentric cylinders viscometry, w1 = 0.3	–	0.764
93 kPa, Concentric cylinders viscometry, w1 = 0.4	–	0.9518
100 kPa, Falling or rolling sphere viscometry, w1 = 0.3005	–	0.746
100 kPa, Falling or rolling sphere viscometry, w1 = 0.4001	–	0.942
101 kPa, Falling or rolling sphere viscometry, w1 = 0.3	–	0.746
101 kPa, Falling or rolling sphere viscometry, w1 = 0.4	–	0.942
5000 kPa, Falling or rolling sphere viscometry, w1 = 0.3005	–	0.748
5000 kPa, Falling or rolling sphere viscometry, w1 = 0.4001	–	0.944
10000 kPa, Falling or rolling sphere viscometry, w1 = 0.3005	–	0.755
10000 kPa, Falling or rolling sphere viscometry, w1 = 0.4001	–	0.957
20000 kPa, Falling or rolling sphere viscometry, w1 = 0.3005	–	0.768
20000 kPa, Falling or rolling sphere viscometry, w1 = 0.4001	–	0.975
30000 kPa, Falling or rolling sphere viscometry, w1 = 0.3005	–	0.777
30000 kPa, Falling or rolling sphere viscometry, w1 = 0.4001	–	0.989
40000 kPa, Falling or rolling sphere viscometry, w1 = 0.1001	0.63	–
40000 kPa, Falling or rolling sphere viscometry, w1 = 0.2	0.815	–
40000 kPa, Falling or rolling sphere viscometry, w1 = 0.3005	1.115	0.787
40000 kPa, Falling or rolling sphere viscometry, w1 = 0.4001	1.475	1.006
60000 kPa, Falling or rolling sphere viscometry, w1 = 0.1001	0.639	–
60000 kPa, Falling or rolling sphere viscometry, w1 = 0.2	0.829	0.607
60000 kPa, Falling or rolling sphere viscometry, w1 = 0.3005	1.14	0.807
60000 kPa, Falling or rolling sphere viscometry, w1 = 0.4001	1.518	1.039
80000 kPa, Falling or rolling sphere viscometry, w1 = 0.1001	0.646	–
80000 kPa, Falling or rolling sphere viscometry, w1 = 0.2	0.844	0.619
80000 kPa, Falling or rolling sphere viscometry, w1 = 0.3005	1.165	0.828
80000 kPa, Falling or rolling sphere viscometry, w1 = 0.4001	1.559	1.068
100000 kPa, Falling or rolling sphere viscometry, w1 = 0.1001	0.655	–
100000 kPa, Falling or rolling sphere viscometry, w1 = 0.2	0.859	0.632
100000 kPa, Falling or rolling sphere viscometry, w1 = 0.3005	1.189	0.847
100000 kPa, Falling or rolling sphere viscometry, w1 = 0.4001	1.6	1.097
120000 kPa, Falling or rolling sphere viscometry, w1 = 0.1001	0.663	–
120000 kPa, Falling or rolling sphere viscometry, w1 = 0.2	0.874	0.644
120000 kPa, Falling or rolling sphere viscometry, w1 = 0.3005	1.211	0.861
120000 kPa, Falling or rolling sphere viscometry, w1 = 0.4001	1.645	1.128
